Results taken from PMC8079060 (Drug Delivery, 2021).
Several values for one entry are separate records, joined by “and”; a condition that tells them apart may be missing. Equal entries are not always repeated.

Experiments:
[1] = Plasma pharmacokinetics after intravenous administration; conditions: rats; for Tmax: i.v. NPPA-PTX NPs 6.04 mg kg^−1 (equimolar with 5.00 mg kg^−1 PTX) or Taxol 5.00 mg kg^−1; for Tmax / AUCINF_obs / AUClast / Cmax: plasma
Description: Post injection, ∼200 μL blood samples were drawn from the jugular vein at predetermined time points of 0.033, 0.083, 0.25, 0.5, 1, 2, 4, 6, 8, 12, and 24 h post-injection and centrifuged immediately at 3000 rpm for 10 min at 4 °C. […] 200 μL of deionized water was added into the 40 μL supernatants followed by vortexing for 1 min. Finally, the pharmacokinetic data analysis was performed via a liquid chromatography-tandem mass spectrometry (LC-MS/MS Applied Biosystems. Foster City, CA, USA) and pharmacokinetic parameters were acquired by Winnolin 7.0 software.

[2] = Tissue distribution in MDA-MB-231 tumor-bearing nude mice
Description: Mice were sacrificed and the tumors and main organs were harvested at 1, 4, 8, and 24 h after administration. Each tissue sample was homogenized in 1 mL acetonitrile and centrifugated.

HCT116 cells = assay: cells; conditions: Homo sapiens, HCT-116
Description: (§1) Dose-effect curves were constructed and IC50 values were calculated by GraphPad Prism6/SPSS Software.

MDA-MB-231 cells = assay: cells; conditions: Homo sapiens
Description: as §1

[3] = i.v. NPPA-PTX NPs 6.04 mg kg^−1 or Taxol 5.00 mg kg^−1, mean ± SEM, n = 3

| SMILES | Tmax ([1]; mean ± SEM, n = 3) [min] | Cl_obs [1, 3] [mL/h/kg] | HL_Lambda_z [1, 3] [h] | MRTlast [1, 3] [h] | Vz_obs (apparent distribution volume) [1, 3] | AUCINF_obs [1, 3] [ng·h/mL] | AUClast [1, 3] [ng·h/mL] | Cmax [1, 3] [ng/mL] | other results |
| --- | --- | --- | --- | --- | --- | --- | --- | --- | --- |
| CC(=O)OC1C(=O)C2(C)C(O)CC3OCC3(OC(C)=O)C2C(OC(=O)c2ccccc2)C2(O)CC(OC(=O)C(O)C(NC(=O)c3ccccc3)c3ccccc3)C(C)=C1C2(C)C (centres unmarked) [PTX released from NPPA-PTX] | 2 ± 0 | 7650 ± 2050 | 9.53 ± 5.82 | 7.38 ± 0.817 | 93,700 ± 26,400 mL kg^−1 | 837 ± 264 | 695 ± 99.6 | 99.0 ± 29.2 | MRT compared to that of PTX from Taxol ([1]; i.v.): 4 fold; Vz_obs (apparent distribution volume) ([1]; i.v. NPPA-PTX NPs 6.04 mg kg^−1 or Taxol 5.00 mg kg^−1, mean ± SEM, n = 3, listed as released PTX from NPPA-PTX): 93,700 mL kg^−1; AUC0–24h in plasma compared with PTX from Taxol ([2]; plasma): lower values (about three tenths); AUC0–24h in tumor compared with PTX from Taxol ([2]; tumor): equivalent values |
| CC(=O)O[C@H]1C(=O)[C@@]2(C)[C@H]([C@H](OC(=O)c3ccccc3)[C@]3(O)C[C@H](OC(=O)[C@H](O)[C@@H](NC(=O)c4ccccc4)c4ccccc4)C(C)=C1C3(C)C)[C@]1(OC(C)=O)CO[C@@H]1C[C@@H]2O [PTX, paclitaxel] | – | – | – | – | – | – | – | – | IC50 (HCT116 cells): 300 ± 20 nM; IC50 (MDA-MB-231 cells): 63 ± 3.3 nM |
| CC(=O)OC1C(=O)C2(C)C(O)CC3OCC3(OC(C)=O)C2C(OC(=O)c2ccccc2)C2(O)CC(OC(=O)C(OC(=O)CCc3ccccc3[N+](=O)[O-])C(NC(=O)c3ccccc3)c3ccccc3)C(C)=C1C2(C)C (centres unmarked) [NPPA-PTX, 3-(2-nitrophenyl) propionic acid-paclitaxel] | 2 ± 0 | 1990 ± 987 | 7.45 ± 0.915 | 2.91 ± 0.280 | 20,700 mL kg^−1 and 20,700 ± 9320 mL kg^−1 | 3930 ± 2710 | 3810 ± 2640 | 4580 ± 2140 | MRTINF_obs (mean residence time) [1, 3]: 3.90 ± 0.656 h; AUC tissue/plasma ([2]; Heart): 0.65; AUC tissue/plasma ([2]; Kidney): 0.79; AUC tissue/plasma ([2]; Liver): 3.17; AUC tissue/plasma ([2]; Lung): 0.55; AUC tissue/plasma ([2]; Spleen): 0.35; AUC tissue/plasma ([2]; plasma): 1.00; AUC tissue/plasma ([2]; tumor): 0.45 |
| CC(=O)OC1C(=O)C2(C)C(O)CC3OCC3(OC(C)=O)C2C(OC(=O)c2ccccc2)C2(O)CC(OC(=O)C(O)C(NC(=O)c3ccccc3)c3ccccc3)C(C)=C1C2(C)C (centres unmarked) [PTX from Taxol] | 2 ± 0 | 1170 ± 398 | 5.86 ± 1.24 | 2.50 ± 0.545 | 10,300 mL kg^−1 and 10,300 ± 5480 mL kg^−1 | 4560 ± 1310 | 4480 ± 1310 | 8600 ± 2500 | – |
